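Grown in 96-well plates, cells were treated for 48 hours with each compound at five concentrations. Insufficient inhibition: endpoint recorded as highest concentration tested. The concentration for full growth arrest is given as TGI.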
What was measured:
Test in all cases: NCI anticancer screen, dose series, 48 h
[1] = system: PC-3 prostate
[2] = system: T-47D breast
[3] = system: SK-OV-3 ovarian
[4] = system: HCC-2998 colon
[5] = system: HCT-15 colon
[6] = system: OVCAR-5 ovarian
[7] = system: EKVX NSCLC
[8] = system: RPMI-8226 leukemia
[9] = system: MDA-N
[10] = system: SF-268 CNS
[11] = system: HT29 colon
[12] = system: UACC-257 melanoma
[13] = system: NCI/ADR-RES ovarian
[14] = system: LOX IMVI melanoma
[15] = system: SK-MEL-2 melanoma
[16] = system: IGROV1 ovarian
[17] = system: U251 CNS
[18] = system: A498 renal
[19] = system: MCF7 breast
[20] = system: HOP-62 NSCLC
[21] = system: CCRF-CEM leukemia
[22] = system: ACHN renal
[23] = system: MOLT-4 leukemia
[24] = system: K-562 leukemia
[25] = system: NCI-H23 lung
[26] = system: UO-31 renal
[27] = system: HCT-116 colon
[28] = system: SW-620 colon
[29] = system: SK-MEL-5 melanoma
[30] = system: NCI-H226 lung
[31] = system: SNB-19 CNS
[32] = system: A549 NSCLC
[33] = system: OVCAR-3 ovarian
[34] = system: MALME-3M melanoma
[35] = system: NCI-H460 lung
[36] = system: NCI-H522 lung
[37] = system: OVCAR-4 ovarian
[38] = system: SN12C renal
[39] = system: SF-295 CNS
[40] = system: SNB-75 CNS
[41] = system: HS 578T breast
[42] = system: MDA-MB-435
[43] = system: CAKI-1 renal
[44] = system: RXF 393 renal
[45] = system: UACC-62 melanoma
[46] = system: MDA-MB-231 breast
[47] = system: SR leukemia
[48] = system: SK-MEL-28 melanoma
[49] = system: HOP-92 NSCLC
[50] = system: DU-145 prostate
[51] = system: BT-549 breast
[52] = system: TK-10 renal
[53] = system: OVCAR-8 ovarian
[54] = system: COLO 205 colon
[55] = system: SF-539 CNS
[56] = system: 786-0 renal
[57] = system: KM12 colon
[58] = system: M14 melanoma
[59] = system: HL-60(TB) leukemia

For `O=S(=O)(c1ccccc1)C1CC(c2nc3ccccc3[nH]2)=NO1` (configuration not stated), the TGI [1] was greater than 100 µM, the TGI [2] was greater than 100 µM and the TGI [3] was greater than 100 µM. It also gave a TGI [4] greater than 100 µM, a TGI [5] greater than 100 µM and a TGI [6] greater than 100 µM. For the same molecule, the TGI [7] was greater than 100 µM, the TGI [8] was greater than 100 µM and the TGI [9] was greater than 100 µM. It also gave a TGI [10] greater than 100 µM, a TGI [11] greater than 100 µM and a TGI [12] greater than 100 µM. For the same molecule, the TGI [13] was greater than 100 µM, the TGI [14] was greater than 100 µM and the TGI [15] was greater than 100 µM. For the same molecule, the TGI [16] was greater than 100 µM, the TGI [17] was greater than 100 µM and the TGI [18] was greater than 100 µM. The TGI [19] was greater than 100 µM, the TGI [20] was greater than 100 µM and the TGI [21] was 82.6 µM. It also gave a TGI [22] greater than 100 µM, a TGI [23] greater than 100 µM and a TGI [24] greater than 100 µM. It also gave a TGI [25] greater than 100 µM, a TGI [26] greater than 100 µM and a TGI [27] greater than 100 µM. For the same molecule, the TGI [28] was greater than 100 µM, the TGI [29] was greater than 100 µM and the TGI [30] was greater than 100 µM. It also gave a TGI [31] greater than 100 µM, a TGI [32] greater than 100 µM and a TGI [33] greater than 100 µM. For the same molecule, the TGI [34] was greater than 100 µM, the TGI [35] was greater than 100 µM and the TGI [36] was greater than 100 µM. It also gave a TGI [37] greater than 100 µM, a TGI [38] greater than 100 µM and a TGI [39] greater than 100 µM. The TGI [40] was greater than 100 µM, the TGI [41] was greater than 100 µM and the TGI [42] was greater than 100 µM. The TGI [43] was greater than 100 µM, the TGI [44] was greater than 100 µM and the TGI [45] was greater than 100 µM. For the same molecule, the TGI [46] was greater than 100 µM, the TGI [47] was greater than 100 µM and the TGI [48] was greater than 100 µM. For the same molecule, the TGI [49] was greater than 100 µM, the TGI [50] was greater than 100 µM and the TGI [51] was greater than 100 µM. It also gave a TGI [52] greater than 100 µM, a TGI [53] greater than 100 µM and a TGI [54] greater than 100 µM. For the same molecule, the TGI [55] was greater than 100 µM.
Work on `C/C(=C/CC[C@](C)(OC1OC(CO)C(O)C(O)C1O)[C@H]1CC[C@]2(C)[C@@H]1CC[C@@H]1[C@@]3(C)CC[C@H](O)C(C)(C)[C@@H]3C[C@H](O)[C@]12CO)CO` (some centres not stated) yielded a TGI [1] greater than 100 µM, a TGI [2] greater than 100 µM and a TGI [3] greater than 100 µM. It also gave a TGI [5] greater than 100 µM, a TGI [6] greater than 100 µM and a TGI [56] greater than 100 µM. The TGI [7] was greater than 100 µM, the TGI [8] was greater than 100 µM and the TGI [9] was greater than 100 µM. The TGI [10] was greater than 100 µM, the TGI [11] was greater than 100 µM and the TGI [12] was greater than 100 µM. The TGI [13] was greater than 100 µM, the TGI [57] was greater than 100 µM and the TGI [14] was greater than 100 µM. The TGI [58] was greater than 100 µM, the TGI [16] was greater than 100 µM and the TGI [17] was greater than 100 µM. The TGI [18] was greater than 100 µM, the TGI [19] was greater than 100 µM and the TGI [20] was greater than 100 µM. For the same molecule, the TGI [21] was greater than 100 µM, the TGI [22] was greater than 100 µM and the TGI [23] was greater than 100 µM. The TGI [24] was greater than 100 µM, the TGI [25] was greater than 100 µM and the TGI [26] was greater than 100 µM. It also gave a TGI [27] greater than 100 µM, a TGI [28] greater than 100 µM and a TGI [29] greater than 100 µM. It also gave a TGI [30] greater than 100 µM, a TGI [31] greater than 100 µM and a TGI [32] greater than 100 µM. It also gave a TGI [33] greater than 100 µM, a TGI [34] greater than 100 µM and a TGI [35] greater than 100 µM. For the same molecule, the TGI [59] was greater than 100 µM, the TGI [36] was greater than 100 µM and the TGI [37] was greater than 100 µM. The TGI [38] was greater than 100 µM, the TGI [39] was greater than 100 µM and the TGI [40] was greater than 100 µM. For the same molecule, the TGI [41] was greater than 100 µM, the TGI [42] was greater than 100 µM and the TGI [43] was greater than 100 µM. The TGI [44] was greater than 100 µM, the TGI [45] was greater than 100 µM and the TGI [46] was greater than 100 µM. For the same molecule, the TGI [47] was greater than 100 µM, the TGI [48] was greater than 100 µM and the TGI [49] was greater than 100 µM. The TGI [50] was greater than 100 µM, the TGI [51] was greater than 100 µM and the TGI [52] was greater than 100 µM. The TGI [53] was greater than 100 µM, the TGI [54] was greater than 100 µM and the TGI [55] was greater than 100 µM.

— PubChem BioAssay (NCI)
